The results in this text go back to publication PMC4205289, “Triptolide inhibits human immunodeficiency virus type 1 replication by promoting proteasomal degradation of Tat protein” (Retrovirology, 2014).

Data set [1] relates to T1, FLAG-Tat.
T1 construct: expressed in transfected cells; host or cells: HeLa
The experiment in a line: Proteasome inhibition rescue of Tat expression, Western blot, HeLa cells. Type of data set: cell-based, HIV-1 NL4-3. As to conditions: 5 nM triptolide, without MG132. As for the experimental part: Figure 6 Triptolide reduces Tat protein stability by enhancing proteasomal degradation of Tat. (A) The effect of triptolide on Tat mRNA levels. HeLa cells were transfected with pEF1-Tat in the presence of increasing concentrations of triptolide. Cells were harvested 48 h post-transfection. The steady-state mRNA levels of Tat and GAPDH were examined using semi-quantitative reverse transcription PCR analysis. RT, reverse transcriptase. (B) The effect of triptolide on Tat protein degradation. HeLa cells were transfected with pEF1-FLAG-Tat in the presence of 5 nM triptolide or vehicle (DMSO). At 28 h post-transfection, cells were treated with 20 μg/mL of CHX to arrest protein synthesis. At 0, 1, 2, 3 h post-treatment, cells were harvested to determine protein expression levels using Western blot analysis. (C) The band intensities of FLAG-Tat in panel B were measured, and their natural log values were plotted as a function of time. Results were presented as the mean plus the standard deviations (n = 3). (D) Proteasome inhibition restores Tat protein expression. HeLa cells were transfected with pEF1-FLAG-Tat in the presence or absence of 5 nM triptolide. At 48 h post-transfection, cells were treated with 20 μM of MG132, and cultured for an additional 3 h before harvest. Protein expression levels were determined by Western blot analysis. TEXT PRINTED IN THE PICTURE: (C) DMSO: Half-lives: 2.0 h | (C) Triptolide: Half-lives: 0.4 h
Cells were washed with phosphate buffered saline (PBS) and lysed with radio immunoprecipitation assay lysis buffer supplemented with complete mini protease inhibitor cocktail (Roche) at 4°C for 1 h. Proteins from cell lysates were separated by SDS-PAGE and transferred to polyvinylidene difluoride membranes. After overnight incubation with primary antibodies at 4°C, each blot was probed with horseradish peroxidase-conjugated secondary antibody. Immunoreactive signals were detected with an enhanced chemiluminescence substrate (Thermo Scientific) using an AlphaEaseH FC Imaging System (Alpha Innotech Corporation).
(In general: In western blotting, separated proteins are transferred to a membrane and probed.)

Data set [2] has as its system Tat-induced HIV-1 LTR activation. The experiment in a line: HIV-1 LTR-luciferase reporter assay, Tat-induced, Jurkat cells. The class given is cell-based. As to conditions: 48 h. Here is the method: Jurkat cells were seeded in 24-well plates at a density of 2 × 10^5 cells per well. For TNF-α induction, cells were co-transfected with pLTR-Luc and pRL-TK in the presence or absence of the test compounds. Then, the cells were treated with 10 ng/mL TNF-α 36 h post-transfection. After induction for an additional 12 h, luciferase activity was analyzed. For Tat-induced LTR activation, Jurkat cells were co-transfected with pLTR-Luc (or pLTR-Luc-ΔkB), pEF1-Tat and pRL-TK, and cultured in the presence of various concentrations of test compounds for an additional 48 h before the determination of luciferase activity. Luciferase levels were expressed relative to levels in cells without induction.
Background: In a reporter assay the amount or activity of a reporter protein is the signal.

Data set [3] concerns HIV-1 BaL. The experiment in a line: PBMC antiviral assay, p24 ELISA. As to conditions: for EC50: Human immunodeficiency virus 1, BAL, PBMC, 144 h, p24, day 6 post-infection; for selectivity ratio at 6 days: human, read-out: SI (selective index, CC50/EC50). Type of data set: cell-based. In general terms: An ELISA detects its analyte on a solid surface through an enzyme-linked reagent.

The test system of data set [4] is HIV-1 molecular clone pNL4-3.Luc.R-E-. The experiment in a line: Transient gene expression assay, pNL4-3.Luc.R-E- transfected into Jurkat cells. Type of data set: cell-based. The conditions noted are these: 24 h, 118-D-24 50 μM, flavopiridol 20 nM, triptolide 0.2 ~ 5 nM. Here is the method:
Figure 3 Triptolide inhibits HIV-1 transcription. (A) Time-of-addition analysis. TZM-bl cells were infected with HIV-1 (MOI = 0.5, strain NL4-3), and the virus inoculum was removed after 1 h of absorption. Test compounds (dextran sulfate at 10 μg/mL, zidovudine at 1 μM and triptolide at 5 nM) were added at the indicated time points after infection. Reporter signal was monitored at 48 h post-infection as a measure of viral replication. (B) The effect of triptolide on HIV-1 proviral DNA formation. Jurkat cells were infected with HIV-1 (MOI = 0.5, strain NL4-3) in the presence of the test compounds (INI 118-D-24, 50 μM; flavopiridol, 20 nM; and triptolide, 5 nM). Proviral DNA synthesis was determined by nested PCR analysis at 12 h post-infection. (C) The effect of triptolide on HIV-1 mRNA synthesis. Jurkat cells were infected with HIV-1(MOI = 0.5, strain NL4-3) in the presence of the test compounds (INI 118-D-24, 50 μM; flavopiridol, 20 nM; triptolide, 5 nM). Viral mRNA (the Gag region) content was determined by reverse-transcription PCR analysis 12 h post-infection. (D) Inhibition of luciferase expression encoded in pNL4-3.Luc.R-E- by tiptolide. […]
To further confirm that triptolide interferes with HIV-1 transcription, a transient gene expression assay was performed. […] At 24 h after transfection, viral gene transcription (indicated by luciferase activity) was determined. […]

Data set [5] relates to HIV-1 LAI. The experiment in a line: PBMC antiviral assay, p24 ELISA. The class given is cell-based. As to conditions: for EC50: Human immunodeficiency virus 1, PBMC, 144 h, p24, day 6 post-infection; for selectivity ratio at 6 days: human, read-out: SI (selective index, CC50/EC50).

Where two headings read alike, the source gives them in different places.

In the case of `CC(C)[C@]12O[C@H]1[C@@H]1O[C@]13[C@]1(O[C@H]1C[C@H]1C4=C(CC[C@@]13C)C(=O)OC4)[C@@H]2O` [triptolide], the Tat protein expression entry in data set [1] is “reduced to undetectable level”. Also, the “effect on Tat-induced gene expression (pLTR-Luc)” value in data set [2] (co-transfection with pEF1-Tat) was “inhibitory effect”. In data set [2] (pLTRΔκB-Luc), the “effect on Tat-mediated LTR activation, LTR with two mutated NF-κB binding sites” value is recorded as “reduced the Tat-mediated LTR activation”. In addition, the EC50 in data set [3] (PBMC donor A) stood at 1.4 nM; in data set [3] (PBMC donor B), 1.6 nM; in data set [3] (PBMC donor C) it was 1 nM; in data set [5] (PBMC donor A), 1.5 nM; in data set [5] (PBMC donor B), 1.2 nM; in data set [5] (PBMC donor C) it was 1.5 nM. Also, the selectivity ratio at 6 days in data set [3] (PBMC donor A) was 9; in data set [3] (PBMC donor B), 9.6; in data set [3] (PBMC donor C), 11.2; in data set [5] (PBMC donor A), 8.4; in data set [5] (PBMC donor B), 12.8; in data set [5] (PBMC donor C), 7.5. In data set [4], the “effect on luciferase expression from transfected pNL4-3.Luc.R-E-” value was “inhibited reporter expression in a dose-dependent manner”.

Usually EC50 stands for the concentration needed to bring the measured effect to its halfway point.
